Measured values reported in US20220339143A1, “TAK-925 FOR USE IN TREATING NARCOLEPSY” (Takeda Pharmaceutical Company Limited, priority 2019, published 2022).

System: patients with narcolepsy type 1 (NT1)
Assay: Subjective daytime sleepiness as assessed by Karolinska Sleepiness Scale (KSS), single dose (Cohorts 5, 6, 7)
Format: in vivo, human
Conditions: for KSS Change from Baseline, Mean / KSS Change from Baseline, Median / KSS Observed Value at Visit, Mean / KSS Observed Value at Visit, Median: Cmpd A 5 mg (N = 6)
Description: Daytime sleepiness as assessed by the Karolinska Sleepiness Scale (KSS).
Daytime sleepiness as assessed by KSS at predose and hourly until 11 hours after the start of infusion is presented in Table 13 as summary, in Table 14 as ANOVA and in Table 15 as ANOVA of change from baseline.

## COC(=O)N1CCC[C@H](NS(C)(=O)=O)[C@@H]1CO[C@H]1CC[C@@H](c2ccccc2)CC1 [Compound A, methyl (2R,3S)-3-((methylsulfonyl)amino)-2-(((cis-4-phenylcyclohexyl)oxy)methyl)piperidine-1-carboxylate]
5 mg
  LS mean difference (95% CI) of KSS vs placebo during the 9 hour infusion, upper end of range: −0.667 (−2.641, 1.307)
5 mg, 1 hr
  Change from Baseline in KSS, ANOVA Estimate (Cmpd A - Placebo): −2.833
  KSS, ANOVA Estimate (Cmpd A - Placebo): −2.000
5 mg, 2 hr
  Change from Baseline in KSS, ANOVA Estimate (Cmpd A - Placebo): −4.333
  KSS, ANOVA Estimate (Cmpd A - Placebo): −3.500
5 mg, 3 hr
  Change from Baseline in KSS, ANOVA Estimate (Cmpd A - Placebo): −2.167
  KSS, ANOVA Estimate (Cmpd A - Placebo): −1.333
5 mg, 4 hr
  Change from Baseline in KSS, ANOVA Estimate (Cmpd A - Placebo): −4.167
  KSS, ANOVA Estimate (Cmpd A - Placebo): −3.333
5 mg, 5 hr
  Change from Baseline in KSS, ANOVA Estimate (Cmpd A - Placebo): −3.500
  KSS, ANOVA Estimate (Cmpd A - Placebo): −2.667
5 mg, 6 hr
  Change from Baseline in KSS, ANOVA Estimate (Cmpd A - Placebo): −4.333
  KSS, ANOVA Estimate (Cmpd A - Placebo): −3.500
5 mg, 7 hr
  Change from Baseline in KSS, ANOVA Estimate (Cmpd A - Placebo): −4.333
  KSS, ANOVA Estimate (Cmpd A - Placebo): −3.500
5 mg, 8 hr
  Change from Baseline in KSS, ANOVA Estimate (Cmpd A - Placebo): −3.500
  KSS, ANOVA Estimate (Cmpd A - Placebo): −2.667
5 mg, 9 hr
  Change from Baseline in KSS, ANOVA Estimate (Cmpd A - Placebo): −1.500
  KSS, ANOVA Estimate (Cmpd A - Placebo): −0.667
5 mg, 10 hr
  Change from Baseline in KSS, ANOVA Estimate (Cmpd A - Placebo): −2.000
  KSS, ANOVA Estimate (Cmpd A - Placebo): −1.167
5 mg, 11 hr
  Change from Baseline in KSS, ANOVA Estimate (Cmpd A - Placebo): −0.167
  KSS, ANOVA Estimate (Cmpd A - Placebo): 0.667
5 mg, at 2 hour, 6 hour and 7 hour after the start of infusion
  LS mean difference (95% CI) of KSS vs placebo during the 9 hour infusion, lower end of range: −3.500
11.2 mg
  LS mean difference (95% CI) of KSS vs placebo during the 9 hour infusion, lower end of range: −4.000 (−7.331, −0.669)
  LS mean difference (95% CI) of KSS vs placebo during the 9 hour infusion, upper end of range: −1.500 (−3.439, 0.439)
11.2 mg, 1 hr
  Change from Baseline in KSS, ANOVA Estimate (Cmpd A - Placebo): −4.500
  KSS, ANOVA Estimate (Cmpd A - Placebo): −3.500
11.2 mg, 2 hr
  Change from Baseline in KSS, ANOVA Estimate (Cmpd A - Placebo): −4.500
  KSS, ANOVA Estimate (Cmpd A - Placebo): −3.500
11.2 mg, 3 hr
  Change from Baseline in KSS, ANOVA Estimate (Cmpd A - Placebo): −2.500
  KSS, ANOVA Estimate (Cmpd A - Placebo): −1.500
11.2 mg, 4 hr
  Change from Baseline in KSS, ANOVA Estimate (Cmpd A - Placebo): −5.000
  KSS, ANOVA Estimate (Cmpd A - Placebo): −4.000
11.2 mg, 5 hr
  Change from Baseline in KSS, ANOVA Estimate (Cmpd A - Placebo): −4.000
  KSS, ANOVA Estimate (Cmpd A - Placebo): −3.000
11.2 mg, 6 hr
  Change from Baseline in KSS, ANOVA Estimate (Cmpd A - Placebo): −4.000
  KSS, ANOVA Estimate (Cmpd A - Placebo): −3.000
11.2 mg, 7 hr
  Change from Baseline in KSS, ANOVA Estimate (Cmpd A - Placebo): −4.500
  KSS, ANOVA Estimate (Cmpd A - Placebo): −3.500
11.2 mg, 8 hr
  Change from Baseline in KSS, ANOVA Estimate (Cmpd A - Placebo): −3.500
  KSS, ANOVA Estimate (Cmpd A - Placebo): −2.500
11.2 mg, 9 hr
  Change from Baseline in KSS, ANOVA Estimate (Cmpd A - Placebo): −3.000
  KSS, ANOVA Estimate (Cmpd A - Placebo): −2.000
11.2 mg, 10 hr
  Change from Baseline in KSS, ANOVA Estimate (Cmpd A - Placebo): −2.500
  KSS, ANOVA Estimate (Cmpd A - Placebo): −1.500
11.2 mg, 11 hr
  Change from Baseline in KSS, ANOVA Estimate (Cmpd A - Placebo): −2.000
  KSS, ANOVA Estimate (Cmpd A - Placebo): −1.000
44.8 mg
  LS mean difference (95% CI) of KSS vs placebo during the 9 hour infusion, lower end of range: −6.947 (−9.139, −4.756)
  LS mean difference (95% CI) of KSS vs placebo during the 9 hour infusion, upper end of range: −2.868 (−6.851, 1.114)
44.8 mg, 1 hr
  Change from Baseline in KSS, ANOVA Estimate (Cmpd A - Placebo): −5.237
  KSS, ANOVA Estimate (Cmpd A - Placebo): −6.947
44.8 mg, 2 hr
  Change from Baseline in KSS, ANOVA Estimate (Cmpd A - Placebo): −3.053
  KSS, ANOVA Estimate (Cmpd A - Placebo): −4.763
44.8 mg, 3 hr
  Change from Baseline in KSS, ANOVA Estimate (Cmpd A - Placebo): −1.553
  KSS, ANOVA Estimate (Cmpd A - Placebo): −3.263
44.8 mg, 4 hr
  Change from Baseline in KSS, ANOVA Estimate (Cmpd A - Placebo): −2.184
  KSS, ANOVA Estimate (Cmpd A - Placebo): −3.895
44.8 mg, 5 hr
  Change from Baseline in KSS, ANOVA Estimate (Cmpd A - Placebo): −2.026
  KSS, ANOVA Estimate (Cmpd A - Placebo): −3.737
44.8 mg, 6 hr
  Change from Baseline in KSS, ANOVA Estimate (Cmpd A - Placebo): −1.158
  KSS, ANOVA Estimate (Cmpd A - Placebo): −2.868
44.8 mg, 7 hr
  Change from Baseline in KSS, ANOVA Estimate (Cmpd A - Placebo): −3.737
  KSS, ANOVA Estimate (Cmpd A - Placebo): −5.447
44.8 mg, 8 hr
  Change from Baseline in KSS, ANOVA Estimate (Cmpd A - Placebo): −2.921
  KSS, ANOVA Estimate (Cmpd A - Placebo): −4.632
44.8 mg, 9 hr
  Change from Baseline in KSS, ANOVA Estimate (Cmpd A - Placebo): −2.868
  KSS, ANOVA Estimate (Cmpd A - Placebo): −4.579
44.8 mg, 10 hr
  Change from Baseline in KSS, ANOVA Estimate (Cmpd A - Placebo): −0.632
  KSS, ANOVA Estimate (Cmpd A - Placebo): −2.342
44.8 mg, 11 hr
  Change from Baseline in KSS, ANOVA Estimate (Cmpd A - Placebo): 0.974
  KSS, ANOVA Estimate (Cmpd A - Placebo): −0.737
1 hr after start of infusion
  KSS Change from Baseline, Mean: −2.3
  KSS Change from Baseline, Median: −2.5
  KSS Observed Value at Visit, Mean: 2.7
  KSS Observed Value at Visit, Median: 2.5
2 hr after start of infusion
  KSS Change from Baseline, Mean: −2.8
  KSS Change from Baseline, Median: −2.5
  KSS Observed Value at Visit, Mean: 2.2
  KSS Observed Value at Visit, Median: 2.0
3 hr after start of infusion
  KSS Change from Baseline, Mean: −3.2
  KSS Change from Baseline, Median: −3.5
  KSS Observed Value at Visit, Mean: 1.8
  KSS Observed Value at Visit, Median: 1.5
4 hr after start of infusion
  KSS Change from Baseline, Mean: −2.8
  KSS Change from Baseline, Median: −2.5
  KSS Observed Value at Visit, Mean: 2.2
  KSS Observed Value at Visit, Median: 1.5
5 hr after start of infusion
  KSS Change from Baseline, Mean: −3.0
  KSS Change from Baseline, Median: −3.0
  KSS Observed Value at Visit, Mean: 2.0
  KSS Observed Value at Visit, Median: 2.0
6 hr after start of infusion
  KSS Change from Baseline, Mean: −3.2
  KSS Change from Baseline, Median: −3.5
  KSS Observed Value at Visit, Mean: 1.8
  KSS Observed Value at Visit, Median: 1.5
7 hr after start of infusion
  KSS Change from Baseline, Mean: −2.5
  KSS Change from Baseline, Median: −2.5
  KSS Observed Value at Visit, Mean: 2.5
  KSS Observed Value at Visit, Median: 2.5
8 hr after start of infusion
  KSS Change from Baseline, Mean: −2.7
  KSS Change from Baseline, Median: −3.0
  KSS Observed Value at Visit, Mean: 2.3
